PubChem BioAssay AID1159560 (GlaxoSmithKline (GSK), 2015)
pIC50: −log10 of the molar value. Calls of active or inactive are those of the source. The rule behind the calls is not given here.

Test system: Leishmania donovani growth inhibition
Assay: Leishmania donovani growth inhibition (AID 1159560);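 note: parasites exposed to compound for 72 h before the viability read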

Structure (SMILES) | IC50 | pIC50
COc1cccc(S(=O)(=O)Nc2ccc3c(c2)CC(N2CCC(NC(=O)C4CC4)CC2)C3)c1 (stereo not given) | > 50 µM (inactive) | –
O=C(NC(CO)c1ccc(F)cc1)c1ccc(-c2c[nH]c3ncccc23)s1 (stereo not given) | – | 4.49
O=C(Nc1ccc(C(F)(F)F)cc1)NC1(C(=O)NCc2ccco2)CCCCC1 | – | 4.40
Cc1ccccc1NS(=O)(=O)c1ccc2[nH]cc(C(=O)NC3CCCC3)c(=O)c2c1 | > 50 µM (inactive) | –
COc1cccc(-c2cc(C(F)(F)F)nc(-n3ccc([N+](=O)[O-])n3)n2)c1 | > 50 µM (inactive) | –
CCCCc1cc(Nc2cc(C3CCC3)[nH]n2)nc(N2CCC2C(N)=O)n1 (stereo not given) | – | 5.40
O=C(Cn1cnc([N+](=O)[O-])n1)Nc1ccc(Cl)cc1C(=O)c1ccccc1 | > 50 µM (inactive) | –
COc1cc(F)c2ncc(F)c(CCN3CC[C@H](NCc4cc5c(cn4)OCS5)[C@@H](O)C3)c2c1 | – | 4.60
O=c1ccc2ccc(F)c3c2n1C[C@H]3CN1CCN(CC(O)c2cc3c(cn2)OCS3)CC1 (stereo not given in full) | – | 4.70
N#Cc1nc(C=Cc2ccccc2)oc1NCc1cccnc1 | – | 4.60
COc1cccc(-c2c(C)nn(-c3nc(N)nc(-c4ccccn4)n3)c2N)c1 | – | 5.30
COc1cc(C2SCC(=O)Nc3c2c(C)nn3-c2nc3ccccc3s2)cc(OC)c1O (stereo not given) | – | 5.20
CCCCN(C(=O)c1ccc(NC(=O)C(C)C)cc1)c1ccccc1 | – | 6.00
Cc1nn(C)c(Cl)c1CN(Cc1cccnc1)Cc1ccsc1 | – | 5.70
CN(Cc1ccc(C(N)=O)cc1)C(c1ccc(F)cc1)c1cccnc1 (stereo not given) | > 50 µM (inactive) | –
O=C(Nc1nc2ccccc2[nH]1)c1c(O)c2cccc3c2n(c1=O)CC3 | – | 5.60
COc1ccc2nccc([C@H](O)CN3CC[C@H](NC(=O)c4ccc(Br)cc4)[C@@H](O)C3)c2n1 | – | 5.49
COc1cccc(C(=O)[C@H]2C[C@@H]2CN(Cc2ccccn2)Cc2ccccn2)c1 | – | 5.10
CNC(=O)C1Cc2ccccc2N1C(=O)COc1cccc(OC)c1 (stereo not given) | > 50 µM (inactive) | –
Cn1nccc1NC(=O)Cn1ccc(-c2ccncc2)n1 | > 50 µM (inactive) | –
CCCc1nc2nc(N)nc(N)c2cc1CC | – | 5.70
Cc1[nH]nc(C(F)(F)F)c1NC(=O)CCn1cc(Cl)c([N+](=O)[O-])n1 | > 50 µM (inactive) | –
Cc1ccc(Nc2nc(-c3ccccn3)cc(N3CCCC(O)C3)n2)cc1 (stereo not given) | – | 5.70
c1ccc2sc(Nc3nc4ncccc4[nH]3)nc2c1 | – | 5.80
O=C(c1ccc(OCCCc2cnc[nH]2)cc1)C1CC1 | > 50 µM (inactive) | –
Cc1cc(C)c(C#N)c(SCC(=O)c2ccc3c(c2)OCO3)n1 | > 50 µM (inactive) | –
Cc1nc(-c2ccncc2)ncc1C(C)NC(=O)c1ccc(Cl)s1 (stereo not given) | > 50 µM (inactive) | –

Structure (SMILES) | IC50 | pIC50
COc1cccc(CN(C)Cc2nc(N)c3c(C)c(C)sc3n2)c1 | – | 4.49
Cc1cc(C)nc(N2CCC(N(Cc3cccnc3)C(=O)c3cccc(C#N)c3)CC2)n1 | – | 5.30
O=C(CN1CCN(c2ccccn2)CC1)Nc1cc(S(=O)(=O)N2CCCCCC2)ccc1Cl | – | 5.10
Cc1ccc(Nc2nc(C3CCCN3Cc3ccn[nH]3)cs2)nc1 (stereo not given) | – | 4.89
CCOC(=O)c1noc(N)c1-c1ccccc1 | > 50 µM (inactive) | –
O=C(NCCc1csc(-c2ccc(F)cc2)n1)c1cccs1 | > 50 µM (inactive) | –
Cc1nc(C(=O)Nc2ccc3c(c2)OCO3)nn1-c1ccc(F)cc1 | – | 5.70
CCc1c(C)nc(-n2nc(C)cc2NC(=O)COc2ccccc2F)[nH]c1=O | – | 6.89
Nc1nc(-c2ccccn2)nc(-n2nc(-c3ccccc3)cc2N)n1 | – | 5.70
Cc1cc2nc(CN(C)Cc3ncccc3C)[nH]c2cc1C | – | 5.30
O=C(COc1ccccc1)Nc1ccccc1C(=O)Nc1nccs1 | > 50 µM (inactive) | –
COc1ncc(-c2ccc3nccc(-c4ccncc4)c3c2)cc1NS(=O)(=O)C1CC1 | – | 5.89
COc1cnc2ccc(=O)n(CCN3CCC(NC(=O)c4ccc(Cl)cc4)CC3)c2c1 | – | 5.70
Cc1nc(-c2nc(NCc3ccc(Cl)cc3)c3cccnc3c2O)n[nH]1 | – | 5.70
COCCn1c(-c2ccc3c(c2)OCO3)cnc1NCc1ccccc1OC | – | 4.89
NS(=O)(=O)c1ccc(Nc2nccc(-c3cnn4ncccc34)n2)cc1 | – | 6.10
N#Cc1cccc(CN2CCC(N(Cc3cccnc3)C(=O)c3cc(F)c(F)cc3F)CC2)c1 | > 50 µM (inactive) | –
CN(Cc1nc2c(C(=O)N3CCN(Cc4ccccc4)CC3)cccc2[nH]1)C1CCCc2cccnc21 (stereo not given) | – | 5.30
Cc1ccc(C)c(CN2C(=O)NC3(CCc4ccccc43)C2=O)c1 (stereo not given) | > 50 µM (inactive) | –
O=C(Nc1ccc(-c2nc3ccccc3c(=O)[nH]2)cc1)c1cccs1 | > 50 µM (inactive) | –
COc1ccc(S(=O)(=O)Nc2ccc(C(=O)Nc3nc(-c4ccccn4)cs3)cc2)cc1 | – | 6.00
CC(C)(C)Nc1nc(Nc2ccc3c(c2)CS(=O)(=O)C3)nc2[nH]ccc12 | – | 5.10
O=C(c1cccc(Nc2ncc(-c3ccc4c(c3)OCO4)cn2)c1)N1CCSC1 | – | 5.89
CC(Cn1ccnc1)NC(=O)COc1ccc(Cl)c(Cl)c1 (stereo not given) | > 50 µM (inactive) | –
COc1ccc2nc(N(Cc3cccnc3)C(=O)C3CCC3)sc2c1 | – | 4.89
Cc1cccnc1CN1CCN(CCCOc2ccc(-c3ccc(C(N)=O)cc3)cc2)CC1 | > 50 µM (inactive) | –
Cc1ccc(C)c(-n2nnnc2Sc2nc([N+](=O)[O-])nn2C)c1 | > 50 µM (inactive) | –

Structure (SMILES) | IC50 | pIC50
O=C(NCc1ccncc1)c1ccccc1N1CCCN(C(=O)Cc2ccc(F)c(F)c2)CC1 | – | 5.60
CCN(CC)S(=O)(=O)c1ccc(Cn2nc(C(=O)Nc3ccncn3)c3ccccc32)cc1 | > 50 µM (inactive) | –
COc1ccc2ncc(F)c(CCN3CC[C@@H](NC(=O)c4cc5c(s4)CCC5)[C@@H](O)C3)c2n1 | – | 6.00
CCNc1cc(-c2ccccn2)nc(Nc2ccccc2)n1 | – | 5.60
COCc1cc(Nc2ccc(Cl)cc2)nc(-c2ccccn2)n1 | – | 5.60
O=C(CN(c1cccc(C(F)(F)F)c1)S(=O)(=O)c1ccc(Cl)cc1)NCc1ccc(F)c(F)c1 | > 50 µM (inactive) | –
Cn1nc(-c2ccc(NC(=O)Cc3ccccc3Cl)cc2)c2c(N)ncnc21 | > 50 µM (inactive) | –
c1ccc(-c2nc(NCc3ccco3)c3ccccc3n2)nc1 | – | 5.49
COc1ccc(S(=O)(=O)NC(C)C)cc1Nc1ncc(-c2cccc(F)c2)cn1 | – | 5.20
CN(C)CCN(C)Cc1ccc(F)cc1NS(=O)(=O)c1ccc(Cl)c(Cl)c1 | – | 5.10
Cc1cc(-c2cccc3ccccc23)nc2nc(N)nc(N)c12 | – | 5.70
CNC(=O)C1Cc2ccccc2N1C(=O)Cc1ccc(OC)cc1 (stereo not given) | > 50 µM (inactive) | –
O=C(CSc1ccc(F)cc1)N[C@@H](Cc1cnc[nH]1)C(=O)NCCc1ccccc1 | > 50 µM (inactive) | –
CCC(CC)C(=O)Nc1cccc(C(=O)Nc2nnc(C3CCCCC3)s2)c1 | > 50 µM (inactive) | –
CN(C)CCN(C)Cc1ccc(Cl)cc1NS(=O)(=O)c1ccc(Cl)c(Cl)c1 | – | 5.30
Cc1ccc(NC(=O)c2ccnc(N3CCCC3)c2)cc1-c1cc(C(N)=O)ccc1C | – | 4.60
COc1ccc(Cc2nc(-c3ncc4cccnc4c3O)n[nH]2)cc1OC | – | 6.49
Cc1nn(-c2nc3ccccc3[nH]2)c2c1C(c1ccc(O)cc1)CC(=O)N2 (stereo not given) | – | 6.10
CC(=Cc1ccccc1)CN1CCC(=O)N(Cc2cccnc2)CC1 | > 50 µM (inactive) | –
CCCn1c(NC(=O)Cc2ccc(Cl)cc2)nc2ccccc21 | – | 4.40
CC(c1cc(Cl)cc(Cl)c1)N(C)c1ncc2c(N)nc(N)nc2n1 (stereo not given) | – | 6.10
CCn1c(NC(=O)Cc2ccc(F)cc2)nc2ccccc21 | – | 5.00
CN(Cc1cccnc1)Cc1ccc(N2CCN(C(=O)C3(c4ccc(Cl)cc4)CC3)CC2)nc1 | – | 4.49
CC(C)Oc1ccc(C(=O)Nc2ccc(N3CCOCC3)c(Cl)c2)cc1 | > 50 µM (inactive) | –
O=C(Cn1cnc2cc([N+](=O)[O-])ccc2c1=O)NCCc1ccc(Cl)cc1Cl | > 50 µM (inactive) | –
Cn1nccc1-c1cc(OC(CN)c2ccccc2)cnc1-c1ccco1 (stereo not given) | > 50 µM (inactive) | –
Cc1cc2cc(CNc3ccc4c(c3)OCO4)c(=O)n(CCO)c2cc1C | – | 5.20

Structure (SMILES) | IC50 | pIC50
O=C(COc1ncnc2cc([N+](=O)[O-])ccc12)NC(=O)NC1CCCCC1 | > 50 µM (inactive) | –
CC1(C)CCC(=Cc2ccc(Cl)cc2)CC1(O)Cn1ccnc1 (stereo not given) | – | 5.60
COc1ccc2ncc(=O)n(CCN3CCOC(CNCc4ccc(C(F)(F)F)cc4F)C3)c2n1 (stereo not given) | – | 4.40
O=C(CC1(O)C(=O)N(Cc2ccccc2)c2ccc(Br)cc21)c1cccnc1 (stereo not given) | > 50 µM (inactive) | –
COc1cnc2ccc(=O)n(CCN3CCC(NC(=O)Cc4ccc(Cl)c(Cl)c4)CC3)c2c1 | – | 5.30
Cc1ccccc1CNC(=O)CN(Cc1ccccn1)Cc1ccccn1 | – | 5.00
O=S1N=C(NCCCN(Cc2ccc(F)cc2)c2ccccn2)C(NCc2ccncc2)=N1 (stereo not given) | > 50 µM (inactive) | –
CN(Cc1cc2ccccc2s1)c1ncc2c(N)nc(N)nc2n1 | – | 4.49
CCC(=O)Nc1ccc(-c2nc3ccc(Cl)cc3[nH]2)cc1 | > 50 µM (inactive) | –
O=S(=O)(c1cccc(CSc2nnc(-c3ccc4c(c3)OCO4)o2)c1)N1CCOCC1 | – | 6.30
Clc1ccc(C(CC2CCCCO2)Cn2cncn2)c(Cl)c1 (stereo not given) | – | 4.60
COc1ccc(Nc2nc(NC3CCC(O)CC3)ncc2Br)c(C(N)=O)c1 (stereo not given) | – | 5.49
CCN(Cc1ccncc1)Cc1ccc(NC(=O)c2cc(-c3ccc(F)cc3)n[nH]2)cc1 | – | 4.80
O=C1OCc2ccc(Nc3nccc(-c4cnn5ncccc45)n3)cc21 | – | 7.20
O=C(c1cnn(-c2ccccc2)n1)N1CCCC(n2ccnc2)C1 (stereo not given) | – | 5.10
NCc1csc(Nc2cc(Oc3ccccc3)ncn2)n1 | > 50 µM (inactive) | –
Cc1ccc(CNC2CCN(C[C@@H]3Cn4c(=O)ccc5ccc(=O)n3c54)CC2)cc1F | > 50 µM (inactive) | –
O=S(=O)(NCC(c1cccnc1)N1CCN(c2ccccc2F)CC1)c1ccc(F)cc1 (stereo not given) | – | 5.40
O=C(CSc1ccc(-c2ccccn2)nn1)Nc1ccc(Cl)cc1 | > 50 µM (inactive) | –
O=C(Nc1ccccc1)Nc1nc(-c2ccccn2)cs1 | – | 5.80
O=C(NCC(c1cccs1)N1CCOCC1)c1ccc([N+](=O)[O-])o1 (stereo not given) | – | 4.49
c1ccc(Nc2nc3ccccc3[nH]2)nc1 | – | 4.60
COc1cccc(Nc2cc(C)nc(-c3ccccn3)n2)c1 | – | 5.40
Cc1nn(C2CCS(=O)(=O)C2)c(C)c1CN(C)C(=O)C=Cc1sc2ccccc2c1Cl (stereo not given) | – | 4.89
